Experimental findings from patent US9980973B2, “Bicyclic heterocycle compounds and their uses in therapy” (ASTEX THERAPEUTICS LIMITED, priority 2012, dated 2018) are described below.

This assay has as its system EVSA-T (human breast carcinoma). As to the kind of experiment: Anti-proliferative activity, Alamar Blue assay, EVSA-T. In kind it is cell-based. In general terms: Resazurin is reduced to fluorescent resorufin, in cell work by metabolically active cells.
Where [1] appears, read: Homo sapiens, EVSA-T, 72 h, EVSA-T cells, 72 hours, Alamar Blue, read-out: EVSA-T prolif.
Setting [2] is: Homo sapiens, EVSA-T, read-out: EC50 in EVSA-T cell line assays.
Where [3] appears, read: EVSA-T cells, 72 hours, Alamar Blue, dihydrochloride, read-out: EVSA-T prolif.

pEC50: −log10 of the molar value. Where a name gives a salt, the structure may show the parent alone. Read-outs that look alike come from different tables or passages of the source.

Regarding `CC(=O)N1CCN(C[C@H]2CN[C@H](C)CN2CC(=O)N2CC(C)(C)c3ncc(Cc4ccc(F)cc4)cc32)C(C)C1` (mixture of isomers) [Example 33, 2-[(2R,5R)-2-[(4-Acetyl-2-methylpiperazin-1-yl)methyl]-5-methylpiperazin-1-yl]-1-{6-[(4-fluorophenyl)methyl]-3,3-dimethyl-1H,2H,3H-pyrrolo[3,2-b]pyridin-1-yl}ethan-1-one dihydrochloride], the pEC50 reads like this: under setting [1], 9.34; under setting [2], more than 6.00. The matching figures for `CO[C@@H]1CN(C[C@H]2CN[C@H](C)CN2CC(=O)N2CC(C)(C)c3ncc(Cc4ccc(F)cc4)cc32)C[C@@H]1F` (mixture of isomers) [Example 41]: 8.22 and more than 6.00. For the compound `CC1CC(=O)CCN1C[C@H]1CN[C@H](C)CN1CC(=O)N1CC(C)(C)c2ncc(Cc3ccc(F)cc3)cc21` (single isomer, unassigned) [Example 39, (2R or 2S)-1-{[(2R,5R)-1-(2-{6-[(4-Fluorophenyl)methyl]-3,3-dimethyl-1H,2H,3H-pyrrolo[3,2-b]pyridin-1-yl}-2-oxoethyl)-5-methylpiperazin-2-yl]methyl}-2-methylpiperidin-4-one dihydrochloride], the pEC50 was 8.27 under setting [1] and more than 6.00 under setting [2]. For the compound `CC1CC(=O)CCN1C[C@H]1CN[C@H](C)CN1CC(=O)N1CC(C)(C)c2ncc(Cc3ccc(F)cc3)cc21` (single isomer, unassigned) [Example 40, dihydrochloride], under setting [3], the pEC50 is 8.55.

As to `COCC1(C)COCCN1C[C@H]1CN[C@H](C)CN1CC(=O)N1CC(C)(C)c2ncc(Cc3ccc(F)cc3)cc21` (single isomer, unassigned) [Example 99, dihydrochloride], the pEC50 under setting [1] is 8.82. For `C[C@@H]1CN(CC(=O)N2CC(C)(C)c3ncc(C(O)c4ccc(F)cc4F)cc32)[C@@H](CN2[C@H](C)COC[C@H]2C)CN1` (single isomer, unassigned) [Example 103, (R or S)-1-[6-[(2,4-Difluorophenyl)(hydroxy)meth-yl]-3,3-dimethyl-1H,2H,3H-pyrrolo[3,2-b]pyridin-1-yl}-2-[(2R,5R)-2-{[(3R,5R)-3,5-dimethylmorpholin-4-yl]methyl}-5-methylpiperazin-1-yl]ethan-1-one dihydrochloride], the pEC50 by setting is: under setting [3], 8.55; under setting [2], more than 6.00.

Take `C[C@@H]1CN(CC(=O)N2CC(C)(C)c3ncc(C(O)c4ccc(F)cc4F)cc32)[C@@H](CN2[C@H](C)COC[C@H]2C)CN1` (single isomer, unassigned) [Example 104, (R or S)-1-{6-[(2,4-Difluorophenyl)(hydroxy)meth-yl]-3,3-dimethyl-1H,2H,3H-pyrrolo[3,2-b]pyridin-1-yl}-2-[(2R,5R)-2-{[(3R,5R)-3,5-dimethylmorpholin-4-yl]methyl}-5-methylpiperazin-1-yl]ethan-1-one dihydrochloride]: the pEC50 under setting [3] is 8.89. Regarding `C[C@@H]1CN(CC(=O)N2CC(C)(C)c3ncc(C(O)c4ccc(F)c(F)c4)cc32)[C@@H](CN2[C@H](C)COC[C@H]2C)CN1` (single isomer, unassigned) [Example 109, (R or S)-1-{6-[(3,4-Difluorophenyl)(hydroxy)meth-yl]-3,3-dimethyl-1H,2H,3H-pyrrolo[3,2-b]pyridin-1-yl}-2-[(2R,5R)-2-{[(3R,5R)-3,5-dimethylmorpholin-4-yl]methyl}-5-methylpiperazin-1-yl]ethan-1-one dihydrochloride], the pEC50 is 8.01 under setting [3] and more than 6.00 under setting [2].

As for `C[C@@H]1CN(CC(=O)N2CC(C)(C)c3ncc(C(O)c4ccc(F)c(F)c4)cc32)[C@@H](CN2[C@H](C)COC[C@H]2C)CN1` (single isomer, unassigned) [Example 110, (R or S)-1-{6-[(3,4-Difluorophenyl)(hydroxy)meth-yl]-3,3-dimethyl-1H,2H,3H-pyrrolo[3,2-b]pyridin-1-yl}-2-[(2R,5R)-2-{[(3R,5R)-3,5-dimethylmorpholin-4-yl]methyl}-5-methylpiperazin-1-yl]ethan-1-one dihydrochloride], the pEC50 under setting [3] was 8.55.

Regarding `C[C@@H]1CN(CC(=O)N2CC(C)(C)c3ncc(C(O)c4ccccc4)cc32)[C@@H](CN2[C@H](C)COC[C@H]2C)CN1` (single isomer, unassigned) [Example 113, 2-[(2R,5R)-2-{[(3R,5R)-3,5-Dimethylmorpholin-4-yl]methyl}-5-methylpiperazin-1-yl]-1-{(R or S)-6-[hydroxy(phenyl)methyl]-3,3-dimethyl-1H,2H,3H-pyrrolo[3,2-]pyridin-1-yl}ethan-1-one dihydrochloride], the pEC50 by setting is: under setting [1], 8.03; under setting [2], more than 6.00. Consider `C[C@@H]1CN(CC(=O)N2CC(C)(C)c3ncc(C(O)c4ccccc4)cc32)[C@@H](CN2[C@H](C)COC[C@H]2C)CN1` (single isomer, unassigned) [Example 114, 2-[(2R,5R)-2-{[(3R,5R)-3,5-Dimethymorpholin-4-yl]methyl}-5-methylpiperazin-1-yl]-1-{(R or S)-6-[hydroxy(phenyl)methyl]-3,3-dimethyl-1H,2H,3H-pyrrolo[3,2-b]pyridin-1-yl}ethan-1-one dihydrochloride], for which the pEC50 under setting [3] was 7.62. On to `C[C@@H]1CN(CC(=O)N2CC(C)(C)c3ncc(C(O)c4cc(F)ccc4F)cc32)[C@@H](CN2[C@H](C)COC[C@H]2C)CN1` (single isomer, unassigned) [Example 115, 1-{(R or S)-6-[(2,5-Difluorophenyl)(hydroxy)meth-yl]-3,3-dimethyl-1H,2H,3H-pyrrolo[3,2-b]pyridin-1-yl}-2-[(2R,5R)-2-{[(3R,5R)-3,5-dimethylmorpholin-4-yl]methyl}-5-methylpiperazin-1-yl]ethan-1-one dihydrochloride], for which the pEC50 was 8.02 under setting [3] and more than 6.00 under setting [2].

As to `C[C@@H]1CN(CC(=O)N2CC(C)(C)c3ncc(Cc4ccc(F)cc4)cc32)[C@@H](CN2CCC(F)(F)CC2)CN1` [Example 4, 2-[(2R,5R)-2-[(4,4-Difluoropiperidin-1-yl)methyl]-5-methylpiperazin-1-yl]-1-{6-[(4-fluorophenyl)methyl]-3,3-dimethyl-1H,2H,3H-pyrrolo[3,2-b]pyridin-1-yl}ethan-1-one dihydrochloride], the pEC50 under setting [1] was 8.17 and the pEC50 under setting [2] is more than 6.00. The matching figures for `C[C@@H]1CN(CC(=O)N2CC(C)(C)c3ncc(Cc4ccc(F)cc4)cc32)[C@@H](CN2CCOCC2(C)C)CN1` [Example 5, 2-[(2R,5R)-2-[(3,3-Dimethylmorpholin-4-yl)methyl]-5-methylpiperazin-1-yl]-1-{6-[(4-fluorophenyl)methyl]-3,3-dimethyl-1H,2H,3H-pyrrolo[3,2-b]pyridin-1-yl}ethan-1-one dihydrochloride]: 9.52 and more than 6.00.

For the compound `C[C@@H]1CN(CC(=O)N2CC(C)(C)c3ncc(Cc4ccc(F)cc4)cc32)[C@@H](CN2CCC(F)(F)C2)CN1` [Example 6, 2-[(2R,5R)-2-[(3,3-Difluoropyrrolidin-1-yl)methyl]-5-methylpiperazin-1-yl]-1-{6-[(4-fluorophenyl)methyl]-3,3-dimethyl-1H,2H,3H-pyrrolo[3,2-b]pyridin-1-yl}ethan-1-one dihydrochloride], the pEC50 is 8.34 under setting [1] and more than 6.00 under setting [2]. As to `CC1CC(=O)CCN1C[C@H]1CN[C@H](C)CN1CC(=O)N1CC(C)(C)c2ncc(Cc3ccc(F)cc3)cc21` (stereo partly drawn) [Example 8, 1-{[(2R,5R)-1-(2-{6-[(4-Fluorophenyl)methyl]-3,3-dimethyl-1H,2H,3H-pyrrolo[3,2-b]pyridin-1-yl}-2-oxoethyl)-5-methylpiperazin-2-yl]methyl}-2-methylpiperidin-4-one dihydrochloride], the pEC50 by setting is: under setting [1], 8.52; under setting [2], more than 6.00. The matching figures for `CC1CS(=O)(=O)CCN1C[C@H]1CN[C@H](C)CN1CC(=O)N1CC(C)(C)c2ncc(Cc3ccc(F)cc3)cc21` (stereo partly drawn) [Example 9, 4-{[(2R,5R)-1-(2-{6-[(4-Fluorophenyl)methyl]-3,3-dimethyl-1H,2H,3H-pyrrolo[3,2-b]pyridin-1-yl}-2-oxoethyl)-5-methylpiperazin-2-yl]methyl}-3-methyl-1λ^6,4-thiomorpholine-1,1-dione dihydrochloride]: 8.68 and more than 6.00. As for `C[C@@H]1CN(CC(=O)N2CC(C)(C)c3ncc(Cc4ccc(F)cc4)cc32)[C@@H](CN2CCOCC23CC3)CN1` [Example 10, 1-{6-[(4-Fluorophenyl)methyl]-3,3-dimethyl-1H,2H,3H-pyrrolo[3,2-b]pyridin-1-yl}-2-[(2R,5R)-5-methyl-2-{7-oxa-4-azaspiro[2.5]octan-4-ylmethyl}piperazin-1-yl]ethan-1-one dihydrochloride], the pEC50 is, setting by setting: under setting [1], 9.38; under setting [2], more than 6.00. The matching figures for `CC(C)[C@@H]1COCCN1C[C@H]1CN[C@H](C)CN1CC(=O)N1CC(C)(C)c2ncc(Cc3ccc(F)cc3)cc21` [Example 13, 1-{6-[(4-Fluorophenyl)methyl]-3,3-dimethyl-1H,2H,3H-pyrrolo[3,2-b]pyridin-1-yl)-2-[(2R,5R)-5-methyl-2-{[(3R)-3-(propan-2-yl)morpholin-4-yl]methyl}piperazin-1-yl]ethan-1-one dihydrochloride]: 8.92 and more than 6.00. Regarding `C[C@@H]1CN(CC(=O)N2CC(C)(C)c3ncc(Cc4ccc(F)cc4)cc32)[C@@H](CN2CCC[C@@H](F)C2)CN1` [Example 14, 1-{6-[(4-Fluorophenyl)methyl]-3,3-dimethyl-1H,2H,3H-pyrrolo[3,2-b]pyridin-1-yl}-2-[(2R,5R)-2-{[(3R)-3-fluoropiperidin-1-yl]methyl}-5-methylpiperazin-1-yl]ethan-1-one dihydrochloride], the pEC50 is 8.34 under setting [1] and more than 6.00 under setting [2]. The corresponding values for `C[C@@H]1CN(CC(=O)N2CC(C)(C)c3ncc(Cc4ccc(F)cc4)cc32)[C@@H](CN2C3CCC2COC3)CN1` [Example 17, 1-{6-[(4-Fluorophenyl)methyl]-3,3-dimethyl-1H,2H,3H-pyrrolo[3,2-b]pyridin-1-yl}-2-[(2R,5R)-5-methyl-2-{3-oxa-8-azabicyclo[3.2.1]octan-8-ylmethyl}piperazin-1-yl]ethan-1-one dihydrochloride] are 8.42 and more than 6.00.
